Laboratory results taken from US9828379B2 (priority 2013, dated 2017).
Where two headings read alike, the source gives them in different places.

Columns and labels:
FAAH [1] = target: T1, FAAH (Mus musculus, UniProt O08914); experiment: biochemical; details: in vitro competitive ABPP
T1 sequence (O08914 1-579): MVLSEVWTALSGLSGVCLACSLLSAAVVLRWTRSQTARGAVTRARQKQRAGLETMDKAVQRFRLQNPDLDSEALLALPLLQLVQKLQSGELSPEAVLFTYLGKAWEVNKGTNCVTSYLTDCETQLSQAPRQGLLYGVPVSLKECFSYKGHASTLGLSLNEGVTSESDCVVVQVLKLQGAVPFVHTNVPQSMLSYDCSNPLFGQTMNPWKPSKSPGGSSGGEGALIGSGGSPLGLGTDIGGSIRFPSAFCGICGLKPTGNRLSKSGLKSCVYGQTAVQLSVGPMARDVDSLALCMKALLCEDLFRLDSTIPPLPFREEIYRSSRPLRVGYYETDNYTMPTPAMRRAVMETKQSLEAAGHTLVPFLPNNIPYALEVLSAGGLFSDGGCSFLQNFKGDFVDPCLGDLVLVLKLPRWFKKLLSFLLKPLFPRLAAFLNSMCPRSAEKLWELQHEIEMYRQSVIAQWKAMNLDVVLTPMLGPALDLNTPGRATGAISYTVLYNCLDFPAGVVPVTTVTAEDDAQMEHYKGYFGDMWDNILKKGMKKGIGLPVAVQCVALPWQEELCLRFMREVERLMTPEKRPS

MAGL [2] = target: T2, MAGL (Mus musculus, UniProt O35678); experiment: biochemical
T2 sequence (O35678 1-303): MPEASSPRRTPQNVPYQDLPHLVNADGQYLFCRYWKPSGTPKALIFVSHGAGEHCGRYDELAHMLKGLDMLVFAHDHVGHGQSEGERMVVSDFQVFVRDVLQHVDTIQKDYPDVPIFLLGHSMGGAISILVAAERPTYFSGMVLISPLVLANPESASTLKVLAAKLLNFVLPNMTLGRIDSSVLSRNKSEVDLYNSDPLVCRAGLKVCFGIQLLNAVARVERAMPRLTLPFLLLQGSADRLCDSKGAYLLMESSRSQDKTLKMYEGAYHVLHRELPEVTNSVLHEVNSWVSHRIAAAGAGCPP

ABHD6 [3] = target: T3, ABHD6 (Mus musculus, UniProt Q8R2Y0); experiment: biochemical; details: in vitro competitive ABPP
T3 sequence (Q8R2Y0 1-336): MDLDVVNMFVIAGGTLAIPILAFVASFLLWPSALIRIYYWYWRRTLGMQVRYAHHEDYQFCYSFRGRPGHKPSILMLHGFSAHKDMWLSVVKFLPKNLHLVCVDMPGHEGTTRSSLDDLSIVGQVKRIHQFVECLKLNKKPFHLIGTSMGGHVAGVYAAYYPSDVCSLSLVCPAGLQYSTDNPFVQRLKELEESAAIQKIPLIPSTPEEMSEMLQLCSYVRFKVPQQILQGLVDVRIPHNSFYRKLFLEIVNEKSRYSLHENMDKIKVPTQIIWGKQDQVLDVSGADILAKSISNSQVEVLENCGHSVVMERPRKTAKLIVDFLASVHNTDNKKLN

ABHD6 [4] = target: T3, ABHD6; experiment: In vitro competitive activity-based protein profiling (Table 2, % inhibition at 1 μM); type: biochemical; details: read-out: % Inhibition at 1 μM ABHD6
FAAH [5] = target: T1, FAAH; experiment: as above; type: biochemical; details: read-out: % Inhibition at 1 μM FAAH
MAGL [6] = target: T2, MAGL; experiment: as above; type: biochemical; details: read-out: % Inhibition at 1 μM MAGL
Protocol: After 30 min, FP—Rh (1.0 μL, 50 μM in DMSO) was added and the mixture was incubated for another 30 min at 37° C. Reactions were quenched with SDS loading buffer (50 μL-4×) and run on SDS-PAGE.
Cell lysates were diluted with mock proteomes for use in competitive ABPP experiments.

[7] = mouse, in vitro competitive ABPP, read-out: Mouse (IC50 value, nM) MAGL

SMILES | IC50 (FAAH [1]) [nM] | IC50 (MAGL [2]; [7]) [nM] | IC50 (ABHD6 [3]) [nM] | inhibition at 1 µM (ABHD6 [4]) [%] | inhibition at 1 µM (FAAH [5]) [%] | inhibition at 1 µM (MAGL [6]) [%] | IC50 (MAGL [2]) [nM]
CC(=O)N1CCC(n2nc(C)cc2CN2CC3CN(C(=O)OC(C(F)(F)F)C(F)(F)F)CC3C2)CC1 (stereo not drawn) [Example 60, 1,1,1,3,3,3-Hexafluoropropan-2-yl 5-[[1-(1-acetylpiperidin-4-yl)-3-methyl-1H-pyrazol-5-yl]methyl]-octahydropyrrolo[3,4-c]pyrrole-2-carboxylate] | > 10000 | 100 to 1000 | 1000 to 10000 | < 25 | < 25 | > 75 | 
O=C(ON1C(=O)CCC1=O)N1CC2CN(Cc3ccc(Cl)cc3N3CC4CCC(C3)O4)CC2C1 (stereo not drawn) [Example 81, 2,5-Dioxopyrrolidin-1-yl 5-(2-(8-oxa-3-azabicyclo[3.2.1]octan-3-yl)-4-chlorobenzyl)hexahydropyrrolo[3,4-c]pyrrole-2(1H)-carboxylate] | 1000 to 10000 |  | 1000 to 10000 | 25 to 75 | < 25 | 25 to 75 | 100 to 1000
O=C(OC(C(F)(F)F)C(F)(F)F)N1CC2CN(Cc3ccc(C(F)F)cc3N3CCCC3)CC2C1 (stereo not drawn) [Example 205, 1,1,1,3,3,3-hexafluoropropan-2-yl 5-(4-(difluoromethyl)-2-(pyrrolidin-1-yl)benzyl)hexahydropyrrolo[3,4-c]pyrrole-2(1H)-carboxylate] | 1000 to 10000 | < 100 | 1000 to 10000 | < 25 | < 25 | > 75 | 
O=C(OC(C(F)(F)F)C(F)(F)F)N1CC2CN(Cc3cccc(Cl)c3N3CCC(F)(F)CC3)CC2C1 (stereo not drawn) [Example 158, 1,1,1,3,3,3-hexafluoropropan-2-yl 5-[[3-chloro-2-(4,4-difluoropiperidin-1-yl)phenyl]methyl]-octahydropyrrolo[3,4-c]pyrrole-2-carboxylate] | > 10000 | 100 to 1000 | 1000 to 10000 | < 25 | < 25 | > 75 | 
Cc1cccc(-c2cc(CN3CC4CN(C(=O)OC(C(F)(F)F)C(F)(F)F)CC4C3)n(C)n2)c1 (stereo not drawn) [Example 196, 1,1,1,3,3,3-hexafluoropropan-2-yl 5-((1-methyl-3-(m-tolyl)-1H-pyrazol-5-yl)methyl)hexahydropyrrolo[3,4-c]pyrrole-2(1H)-carboxylate] | 1000 to 10000 | < 100 | 1000 to 10000 | < 25 | < 25 | > 75 | 
Cc1ccc(CN2CC3CN(C(=O)OC(C(F)(F)F)C(F)(F)F)CC3C2)cc1-c1ccccc1 (stereo not drawn) [Example 206, 1,1,1,3,3,3-hexafluoropropan-2-yl 5-((6-methyl-[1,1′-biphenyl]-3-yl)methyl)hexahydropyrrolo[3,4-c]pyrrole-2(1H)-carboxylate] | 1000 to 10000 | 100 to 1000 | 1000 to 10000 | 25 to 75 | 25 to 75 | > 75 | 
CC(=O)N1CCN(c2cc(Cl)ccc2CN2CC3CN(C(=O)OC(C(F)(F)F)C(F)(F)F)CC3C2)CC1 (stereo not drawn) [Example 21, 1,1,1,3,3,3-Hexafluoropropan-2-yl 5-[[2-(4-acetylpiperazin-1-yl)-4-chlorophenyl]methyl]-octahydropyrrolo[3,4-c]pyrrole-2-carboxylate] | 1000 to 10000 | < 100 | 100 to 1000 | 25 to 75 | 25 to 75 | > 75 | 
C#CCNC(=O)c1nn(CC)cc1CN1CC2CN(C(=O)OC(C(F)(F)F)C(F)(F)F)CC2C1 (stereo not drawn) [Example 178, 1,1,1,3,3,3-hexafluoropropan-2-yl 5-((1-ethyl-3-(prop-2-yn-1-ylcarbamoyl)-1H-pyrazol-4-yl)methyl)hexahydropyrrolo[3,4-c]pyrrole-2(1H)-carboxylate] | > 10000 | 100 to 1000 | 1000 to 10000 | < 25 | < 25 | > 75 | 
CCn1ncc(CN2CC3CN(C(=O)OC(C(F)(F)F)C(F)(F)F)CC3C2)c1C(=O)NCC1CC1 (stereo not drawn) [Example 179, 1,1,1,3,3,3-hexafluoropropan-2-yl 5-((5-((cyclopropylmethyl)carbamoyl)-1-ethyl-1H-pyrazol-4-yl)methyl)hexahydropyrrolo[3,4-c]pyrrole-2(1H)-carboxylate] | > 10000 | < 100 | 100 to 1000 | 25 to 75 | < 25 | > 75 | 
O=C(ON1C(=O)CCC1=O)N1CC2CN(Cc3ccccc3-c3ccccc3)CC2C1 (stereo not drawn) [Example 87, 2,5-Dioxopyrrolidin-1-yl-5-[(2-phenylphenyl)methyl]-octahydropyrrolo[3,4-c]pyrrole-2-carboxylate] | 100 to 1000 | 100 to 1000 | 1000 to 10000 | 25 to 75 | 25 to 75 | > 75 | 
CCn1cc(CN2CC3CN(C(=O)OC(C(F)(F)F)C(F)(F)F)CC3C2)c(C(=O)NC2CC2)n1 (stereo not drawn) [Example 77, 1,1,1,3,3,3-Hexafluoropropan-2-yl 5-((3-(cyclopropylcarbamoyl)-1-ethyl-1H-pyrazol-4-yl)methyl)hexahydropyrrolo[3,4-c]pyrrole-2(1H)-carboxylate] | > 10000 | 100 to 1000 | 1000 to 10000 | < 25 | < 25 | > 75 | 
O=C(OC(C(F)(F)F)C(F)(F)F)N1CC2CN(Cc3ccc(N4CCOCC4)cc3C(F)(F)F)CC2C1 (stereo not drawn) [Example 10, 1,1,1,3,3,3-Hexafluoropropan-2-yl 5-[[4-(morpholin-4-yl)-2-(trifluoromethyl)phenyl]methyl]-octahydropyrrolo[3,4-c]pyrrole-2-carboxylate] | 100 to 1000 | < 100 | 1000 to 10000 | < 25 | 25 to 75 | > 75 | 
Cc1c(CN2CC3CN(C(=O)OC(C(F)(F)F)C(F)(F)F)CC3C2)cccc1N1CCN(S(C)(=O)=O)CC1 (stereo not drawn) [Example 150, 1,1,1,3,3,3-hexafluoropropan-2-yl 5-[[3-(4-methanesulfonylpiperazin-1-yl)-2-methylphenyl]methyl]-octahydropyrrolo[3,4-c]pyrrole-2-carboxylate] | 1000 to 10000 | < 100 | 1000 to 10000 | < 25 | 25 to 75 | > 75 | 
O=C(OC(C(F)(F)F)C(F)(F)F)N1CC2CN(Cc3ccc(N4CCCCC4)cc3C(F)F)CC2C1 (stereo not drawn) [Example 201, 1,1,1,3,3,3-hexafluoropropan-2-yl 5-(2-(difluoromethyl)-4-(piperidin-1-yl)benzyl)hexahydropyrrolo[3,4-c]pyrrole-2(1H)-carboxylate] | 1000 to 10000 | 100 to 1000 | 1000 to 10000 | < 25 | 25 to 75 | > 75 | 
Cc1cc(CN2CC3CN(C(=O)OC(C(F)(F)F)C(F)(F)F)CC3C2)n(C(C)C)n1 (stereo not drawn) [Example 59, 1,1,1,3,3,3-Hexafluoropropan-2-yl 5-[[3-methyl-1-(propan-2-yl)-1H-pyrazol-5-yl]methyl]-octahydropyrrolo[3,4-c]pyrrole-2-carboxylate] | 1000 to 10000 | 100 to 1000 | 1000 to 10000 | 25 to 75 | 25 to 75 | > 75 | 
